In brackets after ≈: the same amount, converted by molar mass. Non-standard residues stand in square brackets, D forms with d. Residues, ends and D or L forms follow the SMILES beside them. *: point of attachment. Tic = O=C(O)[C@@H]1Cc2ccccc2CN1; NHPr = CCCN*
conditions: buffer; pH 7.4; 200.0 µM

Row | SMILES | solubility kinetic
1 | COc1ccc(C(=O)ON=C2CCN(C)CC2)cc1.Cl | > 44.8 µg/mL
2 | O=C(CCn1ccnc1)Nc1nc2ccccc2[nH]1 | > 38.3 µg/mL
3 | CC(=O)Nc1cccc(NC(=O)c2csc(C)c2)c1 | > 41.2 µg/mL
4 | CCCOc1ccc(CSC(=N)N)cc1C(=O)OC.Cl | 42.6 µg/mL
5 | CCc1cc(C(=O)OC)c(NC(=O)c2ccoc2C)s1 | < 0.6 µg/mL
6 | CN(CC(=O)NCc1ccccc1)Cc1ccc(Cl)cc1 | 43.3 µg/mL (≈ 143 µM)
7 | CC(CN1C(C)CCCC1C)OC(=O)c1ccc(Cl)cc1 (stereo not drawn) | > 46.5 µg/mL
8 | CC1=C(C(=O)N(C)C)C(c2ccc(C)s2)NC(=S)N1 (stereo not drawn) | 31.4 µg/mL (≈ 106 µM)
9 | CC(=O)N1CCN(C(=O)c2ccc3c(c2)OCO3)CC1 | > 41.4 µg/mL
10 | COc1cccc(NC(=O)COC(=O)Cc2ccc(Cl)cc2)c1 | > 50.1 µg/mL
11 | Cc1nc2nc(N)nc(OCc3ccccc3)c2nc1C | 41.6 µg/mL (≈ 148 µM)
12 | O=C(NCCN1CCOCC1)Nc1ccc(F)cc1 | > 40.1 µg/mL
13 | COc1ccc(CNC(=S)Nc2ccc(Br)cc2)cc1 | < 0.4 µg/mL
14 | O=C(COc1ccc([N+](=O)[O-])cc1)N1CCc2ccccc2C1 | 37.5 µg/mL (≈ 120 µM)
15 | C=C1C(C(=O)Nc2ccc(OC)cc2)C1C(=O)Nc1ccc(OC)cc1 (stereo not drawn) | 0.6 µg/mL (≈ 1.7 µM)
16 | CSc1nc2cc(Oc3cccc(Cl)c3Cl)c(Cl)cc2[nH]1 | 0.5 µg/mL (≈ 1.39 µM)
17 | O=C(NCc1ccc(Cl)cc1)N1CCN(Cc2ccccc2)CC1 | > 51.6 µg/mL
18 | CN(C(=O)CSc1ncccn1)C1CCS(=O)(=O)C1 (stereo not drawn) | 42.2 µg/mL (≈ 140 µM)
19 | Cc1ccc(C(=O)C[n+]2ccccc2)cc1.[I-] | > 50.9 µg/mL
20 | O=C1C2C3CC(C2C(=O)N1c1cccc(Cl)c1)[C@H](O)C3O (stereo partly drawn) | > 46.2 µg/mL
21 | Cc1c(C)c(C)c(CO/N=C/c2cccs2)c(C)c1C | 1.3 µg/mL (≈ 4.52 µM)
22 | COc1ccc(NC(=O)/C(=C/c2cccs2)NC(=O)c2ccco2)cc1 | 5 µg/mL (≈ 13.6 µM)

Row | SMILES | solubility kinetic
23 | COc1cc(/C=N/Nc2ccccn2)cc(OC)c1O | > 41 µg/mL
24 | COc1cc2c(C(=O)O)c(C)n(C)c2cc1Br | > 44.7 µg/mL
25 | CN1CCc2c(sc(/N=C/c3cc(C(C)(C)C)ccc3O)c2C#N)C1 | 3.4 µg/mL (≈ 9.62 µM)
26 | O=C(CCNC(=O)c1ccc([N+](=O)[O-])cc1)NCCc1ccccc1 | 13.8 µg/mL (≈ 40.4 µM)
27 | Cc1nc(-c2ccc(C(=O)NCCO)cc2)cs1 | > 39.3 µg/mL
28 | Cc1ccc(C(=O)N/C(=C/c2ccco2)C(=O)NCc2ccco2)cc1 | > 52.6 µg/mL
29 | Cc1ccnc(SCC(=O)NC2CCCCCC2)n1 | 33 µg/mL (≈ 118 µM)
30 | O=C(Nc1ccc(F)cc1)c1cccnc1Oc1ccccc1 | 4.3 µg/mL (≈ 13.9 µM)
31 | Cc1ccc(S(=O)(=O)NCCc2ccncc2)cc1[N+](=O)[O-] | 46.2 µg/mL (≈ 144 µM)
32 | CCC(NC(=O)C1CCCC1)c1ccccc1 (stereo not drawn) | > 34.7 µg/mL
33 | CC(C)[C@H](NC(=O)c1ccccc1F)C(=O)OCCN1C(=O)c2ccccc2C1=O | > 61.9 µg/mL
34 | CCCc1ccc2oc(C(=O)N3CCC[C@H]3CO)c(C)c2c1 | 41.8 µg/mL (≈ 139 µM)
35 | O=C(CC(=O)Nc1nc(C23CC4CC(CC(C4)C2)C3)cs1)NCCO | 50.8 µg/mL (≈ 140 µM)
36 | COc1ccc(CC(=O)OCC(=O)Nc2ccc3c(c2)OCO3)cc1 | > 51.5 µg/mL
37 | Cc1onc(-c2ccccc2)c1CNC(=O)Nc1cccc(Cl)c1 | 1.8 µg/mL (≈ 5.27 µM)
38 | O=[N+]([O-])c1ccc(CCn2ccnc2)cc1 | > 32.6 µg/mL
39 | S=C1Cc2ccccc2C(c2ccc(Cl)cc2)N1 (stereo not drawn) | 4.9 µg/mL (≈ 17.9 µM)
40 | Cc1ccc(C)c(NC(=O)N2CCCCCC2)c1 | > 37 µg/mL
41 | O=S(=O)(c1ccc(Br)cc1Cl)N1CCCN(c2ccc(C(F)(F)F)cn2)CC1 | 3 µg/mL (≈ 6.02 µM)
42 | COc1ccc(NC(=S)Nc2ccc(N(C)C(C)=O)cc2)cc1 | > 49.4 µg/mL
43 | COc1cc(C)c(NC(=O)Cc2ccsc2)cc1OC | 42.4 µg/mL (≈ 146 µM)
44 | CCCn1c(N)c(N2CCCCC2)c(=O)n(CC(=O)Nc2ccc(C(C)=O)cc2)c1=O | 14.8 µg/mL (≈ 34.6 µM)

Row | SMILES | solubility kinetic
45 | O=C(CCC1CCCCC1)NCc1cccnc1 | > 37 µg/mL
46 | O=c1[nH]c(/C=C\c2ccc(O)c(Cl)c2)nc(O)c1[N+](=O)[O-] | 44 µg/mL (≈ 142 µM)
47 | CCNc1nc(NC(C)CC)nc(ON=C(C)C)n1 (stereo not drawn) | > 40 µg/mL
48 | Cc1ccc(Sc2ncnc3onc(C)c23)c(C)c1 | 1.9 µg/mL (≈ 7 µM)
49 | O=C(NC(=S)N1CCCC1)c1ccc(Cl)cc1 | 35.4 µg/mL (≈ 132 µM)
50 | Cc1ccc(-c2csc(NC(=O)c3ccco3)n2)cc1C | 0.7 µg/mL (≈ 2.35 µM)
51 | NC(=O)C1CCN(c2ccc([N+](=O)[O-])cc2Cl)CC1 | 3.3 µg/mL (≈ 11.6 µM)
52 | Cn1c2c(c(=O)n(C)c1=O)C(CC(=O)Nc1ccccc1F)C(=O)N2 (stereo not drawn) | > 51.9 µg/mL
53 | COc1cc2c(cc1OC)C(c1ccccc1)NCC2 (stereo not drawn) | > 40.4 µg/mL
54 | Cn1c(=O)c2c(ncn2CCC(=O)N/N=C/c2ccccc2)n(C)c1=O | > 53.2 µg/mL
55 | O=C(c1ccc(Br)o1)N1CC=C(c2ccccc2)CC1 | 33 µg/mL (≈ 99.3 µM)
56 | O=C(COC(=O)COc1ccccc1)NCc1ccco1 | > 43.4 µg/mL
57 | O=C(Cn1cc([N+](=O)[O-])ccc1=O)Nc1ccc2c(c1)OCO2 | 15.8 µg/mL (≈ 49.8 µM)
58 | COc1cc(CN2CCCCCC2)c([N+](=O)[O-])cc1OC | 34.8 µg/mL (≈ 118 µM)
59 | CN(C)C(=S)NC1CCS(=O)(=O)C1 (stereo not drawn) | > 33.3 µg/mL
60 | CC(=O)Nc1cccc(NC(=O)Cc2ccc3ccccc3c2)c1 | 0.9 µg/mL (≈ 2.83 µM)
61 | CC1CCC(C(C)C)C(OCC(O)CN2CCCC(C)C2)C1.Cl (stereo not drawn) | > 52.2 µg/mL
62 | O=C(c1ccccc1)N1CCCN(c2nccc(C(F)(F)F)n2)CC1 | 44.8 µg/mL (≈ 128 µM)
63 | COc1ccc(Cl)cc1NC(=O)NN1CCN(C)CC1 | > 44.8 µg/mL
64 | CCn1c(C)cc(O)c(C(=O)Nc2cccc(Cl)c2)c1=O | < 0.3 µg/mL
65 | CC(C)c1cccc(C(C)C)c1NC(=S)Nc1cccc(Cl)c1 | < 0.4 µg/mL
66 | Cc1cccc(NC(=O)Cc2c(F)cccc2Cl)n1 | > 41.8 µg/mL

The remaining lines, values ahead:

Row | solubility kinetic | SMILES
67 | > 44.5 µg/mL | O=C(CSc1ncn[nH]1)NCCc1ccc(Cl)cc1
68 | 62.9 µg/mL | CN1C[C@H](C(=O)N[C@]2(C)O[C@@]3(O)[C@@H]4CCCN4C(=O)[C@H](Cc4ccccc4)N3C2=O)CC2c3cccc4[nH]cc(c34)C[C@H]21.CS(=O)(=O)O (stereo partly drawn)
69 | > 37.5 µg/mL | C=C(C)CNC(=S)NNC(=O)c1ccncc1
70 | > 45.8 µg/mL | CC(OC(=O)c1ccc2ccccc2n1)C(=O)c1ccccc1 (stereo not drawn)
71 | > 45 µg/mL | O=C(O)c1ccccc1Nc1ccc2nonc2c1[N+](=O)[O-]
72 | > 53.6 µg/mL | O=C(CSc1nnc2ccccn12)NC(=O)c1cccc([N+](=O)[O-])c1
73 | > 45.7 µg/mL | Cc1cccc(C)c1NC(=O)C1CSC2(C)CCC(=O)N12 (stereo not drawn)
74 | > 41.1 µg/mL | Cl.NC(CCC(=O)O)C12CC3CC(CC(C3)C1)C2 (stereo not drawn)
75 | 47.4 µg/mL (≈ 143 µM) | COc1ccccc1OCC(O)CNCc1ccc2c(c1)OCO2 (stereo not drawn)
76 | > 32.6 µg/mL | Cc1c(C=O)c2ccccc2n1CC(=O)O
77 | 43.4 µg/mL (≈ 132 µM) | Cc1cc2nc(-c3ccc(=O)[nH]c3)n(Cc3ccccc3)c2cc1C
78 | > 33.2 µg/mL | S=C(Nc1cccnc1)N1CCCCC1
79 | > 44.3 µg/mL | Cc1cc(=O)[nH]c(SCC(=O)NC2CCCCCC2)n1
80 | 36.6 µg/mL (≈ 131 µM) | C=CCN1C(=O)c2ccccc2C1(O)Cc1ccccc1 (stereo not drawn)
81 | > 74.5 µg/mL | CC(Oc1ccc2c(-c3ccccc3)cc(=O)oc2c1)C(=O)NC(Cc1c[nH]c2ccccc12)C(=O)O (stereo not drawn)
82 | > 51.8 µg/mL | CCN1C(=O)c2cccc3c(S(=O)(=O)N4CCNCC4)ccc1c23
83 | 33 µg/mL (≈ 128 µM) | O=c1onc(-c2cccnc2)n1-c1ccccc1F
84 | 45.3 µg/mL (≈ 132 µM) | O=C(CSc1cc(Cl)ccc1Cl)NCCCn1ccnc1
85 | 22.9 µg/mL (≈ 77.3 µM) | CC(=O)Nc1ccc(NC(=O)CCCc2ccccc2)cc1
86 | > 45.2 µg/mL | CC1(C)CCC(=O)N(c2ccc(OC(F)(F)F)cc2)C1=O
87 | 26.6 µg/mL | Cc1cccc[n+]1CC(=O)Nc1ccccc1.[Cl-]
88 | 2.9 µg/mL (≈ 7.03 µM) | Cn1c(N)c(C(=O)COC(=O)/C=C/c2ccc(Cl)cc2Cl)c(=O)n(C)c1=O
89 | 32.7 µg/mL (≈ 113 µM) | Cc1ccc(C)c(NC(=O)CCN2CC(C)CC(C)C2)c1 (stereo not drawn)
90 | > 56.6 µg/mL | COc1ccc(/C=N/NC(=O)c2ccccc2O)cc1COc1ccccn1
91 | < 0.4 µg/mL | O=C(NC1CCN(S(=O)(=O)c2ccccc2)CC1)c1ccccc1
92 | > 49.6 µg/mL | O=C(CC1(CC(=O)N2CCOCC2)CCCC1)Nc1ccccc1

Row | solubility kinetic | SMILES
93 | 44.5 µg/mL (≈ 146 µM) | Cn1c(C2=C(O)CN(c3ccccc3)C2=N)nc2ccccc21
94 | 8 µg/mL (≈ 27.1 µM) | CC(=O)COC(=O)c1ccc2noc(-c3ccccc3)c2c1
95 | 3 µg/mL (≈ 7.82 µM) | COC(=O)c1cc(OCC(=O)Nc2ccc3c(c2)CCC3)cc(C(=O)OC)c1
96 | 26.8 µg/mL (≈ 139 µM) | O=[N+]([O-])c1ccc(N2CCCC2)nc1
97 | > 40.2 µg/mL | Cc1cc2ncc(S(=O)(=O)C(C)(C)C)c(N)n2n1
98 | > 46.9 µg/mL | CC(Oc1ccccc1)C(=O)N1CCN(c2ncccn2)CC1 (stereo not drawn)
99 | 3.9 µg/mL (≈ 10.1 µM) | CC(=O)Nc1ccc(SCC(=O)Nc2ccccc2N2CCOCC2)cc1
100 | 30.5 µg/mL (≈ 123 µM) | Cc1ccc(NC(=S)N2CCCCC2)cc1C
101 | < 0.2 µg/mL | O=[N+]([O-])c1cccc2c3c([nH]c12)CCCC3
102 | 3.4 µg/mL (≈ 15.3 µM) | Cc1ccc2c(C(=O)CCl)c(C)[nH]c2c1
103 | 0.6 µg/mL (≈ 1.73 µM) | COc1ccc(C(=O)Nc2ccc(C(=O)Nc3cccnc3)cc2)cc1
104 | > 49.6 µg/mL | CCN(CC)S(=O)(=O)c1nnc(NC(=O)c2ccco2)s1
105 | 43.4 µg/mL (≈ 128 µM) | Cc1ccccc1N1CC(C(=O)Nc2ccc3c(c2)OCO3)CC1=O (stereo not drawn)
106 | 0.5 µg/mL (≈ 1.68 µM) | O=C(/C=C/c1ccccc1)NC(=S)Nc1ccccc1O
107 | 6.3 µg/mL (≈ 21.7 µM) | O=C(Nc1cccc(Cl)c1)c1ccc2c(c1)OCCO2
108 | > 52.8 µg/mL | CCCNC(=O)[C@@H]1CCCN1C(=O)[C@@H]1Cc2ccccc2CN1.Cl (H-[Tic]-Pro-NHPr)
109 | 45.7 µg/mL (≈ 133 µM) | CCOc1ccccc1N1CC(C(=O)NC2CCCCCC2)CC1=O (stereo not drawn)
110 | < 0.4 µg/mL | COc1ccc2[nH]c(C(=O)Nc3ccc(F)cc3Br)cc2c1
111 | > 42.7 µg/mL | Cc1cc(NCc2ccccc2)c2ccccc2n1.Cl
112 | > 39.1 µg/mL | CCCc1ncc(C(O)c2cccc(OC)c2)n1C (stereo not drawn)
113 | 4.7 µg/mL (≈ 16.9 µM) | Cc1ccc(-c2nc(C=Nc3ccccc3)c(O)o2)cc1
114 | > 51.4 µg/mL | Nc1nc(NCCOCCO)nc(NCC2CCCO2)c1[N+](=O)[O-] (stereo not drawn)
115 | 1.4 µg/mL (≈ 4.21 µM) | CCSc1ccccc1C(=O)Nc1ccc([N+](=O)[O-])cc1OC
116 | 6.9 µg/mL (≈ 21.1 µM) | COc1cccc(NC(=S)N2CCC(c3ccc(C)cc3)C2)c1 (stereo not drawn)
117 | > 47 µg/mL | Cc1ccc(N2CC(C(=O)Nc3cc(C)on3)CC2=O)c(C)c1 (stereo not drawn)
118 | 28.6 µg/mL (≈ 103 µM) | Cc1cccc(OCCCCCN2CCOCC2)c1C

— PubChem BioAssay AID1996
